# Reference: PubChem BioAssay AID330 (DTP/NCI, 2004)
# Several values for one entry are separate records, joined by “and”; a condition that tells them apart may be missing. Identical values can stand only once. Toxic doses and inconclusive results are not listed.
# Test system: P388 leukemia ip, CD2F1 mice, survival T/C
# Experiment: NCI In Vivo Anticancer Drug Screen. Data for tumor model P388 Leukemia (intraperitoneal) in CD2F1 (CDF1) mice
# Details: endpoint: median survival time, higher = longer survival
# Procedure, shortened: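 Mice carrying the transplanted tumor received test compound or vehicle. Survival was recorded in each group, and the value is the treated-group measurement divided by that of the vehicle-treated control group.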
# [1] = dose: 50.0 mg/kg/injection, schedule: Q01DX005 (ip), vehicle: Klucel (hydroxypropylcellulose) (HPC)
# [2] = dose: 100.0 mg/kg/injection, schedule: Q01DX005 (ip), vehicle: Klucel (hydroxypropylcellulose) (HPC)
# [3] = dose: 200.0 mg/kg/injection, schedule: Q01DX005 (ip), vehicle: Klucel (hydroxypropylcellulose) (HPC)
# [4] = dose: 50.0 mg/kg/injection, schedule: Q01DX009 (ip), vehicle: saline with Tween-80
# [5] = dose: 100.0 mg/kg/injection, schedule: Q01DX009 (ip), vehicle: saline with Tween-80
# [6] = dose: 50.0 mg/kg/injection, schedule: Q01DX005 (ip), vehicle: saline
# [7] = dose: 100.0 mg/kg/injection, schedule: Q01DX005 (ip), vehicle: saline
# [8] = dose: 25.0 mg/kg/injection, schedule: Q01DX005 (ip), vehicle: saline
# [9] = dose: 50.0 mg/kg/injection, schedule: Q01DX009 (ip), vehicle: Klucel (hydroxypropylcellulose) (HPC)
# [10] = dose: 100.0 mg/kg/injection, schedule: Q01DX009 (ip), vehicle: Klucel (hydroxypropylcellulose) (HPC)
# [11] = dose: 200.0 mg/kg/injection, schedule: Q01DX009 (ip), vehicle: Klucel (hydroxypropylcellulose) (HPC)
# [12] = dose: 50.0 mg/kg/injection, schedule: Q01DX005 (ip), vehicle: saline with Tween-80
# [13] = dose: 100.0 mg/kg/injection, schedule: Q01DX005 (ip), vehicle: saline with Tween-80
# [14] = dose: 200.0 mg/kg/injection, schedule: Q01DX005 (ip), vehicle: saline with Tween-80
# [15] = dose: 60.0 mg/kg/injection, schedule: Q01DX005 (ip), vehicle: Klucel (hydroxypropylcellulose) (HPC)
# [16] = dose: 120.0 mg/kg/injection, schedule: Q01DX005 (ip), vehicle: Klucel (hydroxypropylcellulose) (HPC)
smiles,measurement,setting,value
Nc1c(/C=C/c2ccccc2)[nH]c(=O)[nH]c1=O,T/C,"dose: 25.0 mg/kg/injection, schedule: Q04DX002 (ip), vehicle: saline",104 % of control
same,T/C,"dose: 50.0 mg/kg/injection, schedule: Q04DX002 (ip), vehicle: saline",105 % of control
same,T/C,"dose: 100.0 mg/kg/injection, schedule: Q04DX002 (ip), vehicle: saline",121 % of control and 88 % of control
O=C(O)CCCCCSCCCCCCSCCCCCC(=O)O,T/C,[1],102 % of control
same,T/C,[2],105 % of control
same,T/C,[3],100 % of control
CC[N+](C)(C)c1ccc(/C=C(/C#N)C(=O)OC)cc1,T/C,[4],100 % of control
same,T/C,[5],103 % of control
[O-]/[N+](=C\c1ccccc1)c1ccccc1,T/C,"dose: 100.0 mg/kg/injection, schedule: Q04DX003 (ip), vehicle: saline with Tween-80",104 % of control
same,T/C,"dose: 200.0 mg/kg/injection, schedule: Q04DX003 (ip), vehicle: saline with Tween-80",99 % of control
NC(N)=NOCC[C@@H](N)C(=O)O,T/C,[6],100 % of control
same,T/C,[7],99 % of control
same,T/C,"dose: 200.0 mg/kg/injection, schedule: Q01DX005 (ip), vehicle: saline",101 % of control
same,T/C,"dose: 400.0 mg/kg/injection, schedule: Q01DX005 (ip), vehicle: saline",91 % of control
same,T/C,"dose: 1000.0 mg/kg/injection, schedule: Q01DX001 (ip), vehicle: saline",95 % of control
OC(CC1CC2(CCN1)OCCO2)c1ccccc1 (configuration not stated),T/C,"dose: 12.5 mg/kg/injection, schedule: Q01DX005 (ip), vehicle: saline",105 % of control
same,T/C,[8],105 % of control
same,T/C,[6],108 % of control
Nc1c(C(=O)O)c(Br)cc2c1C(=O)c1ccccc1C2=O,T/C,[1],99 % of control
same,T/C,[2],99 % of control
same,T/C,[3],107 % of control
CCCCN(CCCC)C(=S)C(O)(c1ccccc1)c1ccccc1,T/C,[9],95 % of control
same,T/C,[10],91 % of control
same,T/C,[11],90 % of control
c1ccc(-c2nnc(-c3ccccn3)nn2)nc1,T/C,"dose: 25.0 mg/kg/injection, schedule: Q01DX009 (ip), vehicle: Klucel (hydroxypropylcellulose) (HPC)",100 % of control
same,T/C,[9],99 % of control
same,T/C,[10],100 % of control
same,T/C,[11],108 % of control
same,T/C,"dose: 400.0 mg/kg/injection, schedule: Q01DX009 (ip), vehicle: Klucel (hydroxypropylcellulose) (HPC)",96 % of control
CCC(=O)C(=O)NC(C)C(C)=O (configuration not stated),T/C,[12],99 % of control
same,T/C,[13],98 % of control
same,T/C,[14],100 % of control
c1ccc(-c2cnc3cccnc3n2)cc1,T/C,[15],100 % of control
same,T/C,[16],99 % of control
CS(=O)(=O)NC1CC(=O)N(Cc2ccccc2)C1=O (configuration not stated),T/C,[8],91 % of control
same,T/C,[6],99 % of control
same,T/C,[7],105 % of control
C/C(=N\OCC(O)CNCCSCc1ccccc1)c1ccccc1Cl (configuration not stated),T/C,"dose: 30.0 mg/kg/injection, schedule: Q01DX005 (ip), vehicle: Klucel (hydroxypropylcellulose) (HPC)",97 % of control
same,T/C,[15],91 % of control
same,T/C,[16],100 % of control and 91 % of control
CCCCOC(=O)c1ccccc1OP(=O)(N(C)C)N(C)C,T/C,[6],107 % of control
same,T/C,[7],103 % of control
O=C1NC(c2ccccc2)C(c2ccccc2)(c2ccccc2)O1 (configuration not stated),T/C,[4],93 % of control
same,T/C,[5],86 % of control
CC1(C)OCC(C2OC3OC(C)(C)OC3C2NN)O1 (configuration not stated),T/C,[12],95 % of control
same,T/C,[13],98 % of control
same,T/C,[14],100 % of control
